We go through ten molecules from PubChem BioAssay (NCI).

Where “and” joins values, the source holds several entries; their conditions need not be identical. Identical values can stand only once.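 Protocol summary: plate cells (96-well), add compound at 5 concentrations, incubate 48 h, interpolate endpoints linearly. GI50: concentration for 50% inhibition of growth. TGI is the concentration that stops growth completely.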

Holding throughout (assay): DTP human tumour cell line panel, 48 h
The subject of assay [1] is COLO 205 colon.
Assay [2] has as its system M14 melanoma.
The test system of assay [3] is SF-295 CNS.
Assay [4] has as its system SF-268 CNS.
The test system of assay [5] is SR leukemia.
Assay [6] deals with HOP-62 NSCLC.
For assay [7], the system named is MOLT-4 leukemia.
Assay [8] has as its system UACC-257 melanoma.
Assay [9] concerns A498 renal.
Assay [10] has as its system MCF7 breast.

For `CC1=CC(=O)C(O)C2(C)C1CC(O)C13COC4(C)C(OC(=O)C41)C(O)C23` (stereo unspecified), the GI50 is 12.1 µM in [1]; 4.14 µM in assay [2]; 8.02 µM in [3]; 12.6 µM in [4]; 0.688 µM in assay [5]; 6.12 µM in assay [6]. The GI50 in assay [7] was 0.0398 µM; in assay [8] it was 9.57 µM; in assay [9], 18 µM; in assay [10] it was 3.95 µM. The TGI in [1] is 77.1 µM; in assay [2], 15.4 µM; in [3] it was 39.1 µM; in assay [4] it was 52.5 µM; in [5] it was 6.46 µM; in assay [6] it was 36.6 µM. The TGI in assay [7] amounted to 7.34 µM; in assay [8], 38.8 µM; in assay [9], 54.4 µM; in assay [10], 21.9 µM.

As for `C/C1=C\[C@@H](O)C(=O)/C=C/C=C\c2csc(n2)[C@@H](C)NC(=O)C[C@@]2(CC1)S(=O)SC(=O)[C@]2(C)O` (stereo partly specified), the TGI in assay [1] was 0.0903 µM and 0.0418 µM; in assay [2], 0.0397 µM; in assay [3], 0.59 µM and 3.73 µM; in assay [4], 0.285 µM and 0.06 µM; in assay [6], 0.374 µM and 1.83 µM; in assay [8], 0.115 µM and 0.0222 µM. Also, the TGI came to 0.0272 µM in [9] and 0.0101 µM in assay [10]. Further, the GI50 in assay [3] is 0.053 µM; in assay [5] it was greater than 100 µM; in assay [6] it was 0.28 µM; in assay [7], greater than 100 µM.

As for `BrCc1ccc(CBr)cc1`, the GI50 in assay [1] was 0.146 µM; in assay [2], 11.3 µM; in [3] it was 5.12 µM; in [4], 5.82 µM; in [5], greater than 100 µM; in assay [6], 4.23 µM. In addition, the GI50 in assay [7] was 2.11 µM; in assay [8] it was 14 µM; in assay [9] it was 18.3 µM; in assay [10], 1.89 µM. Also, the TGI was greater than 100 µM in [1]; greater than 47.3 µM in assay [2]; 15.8 µM in assay [3]; 18 µM in [4]; greater than 100 µM in [5]; 9.68 µM in assay [6]. For the same molecule, the TGI in assay [8] is 38.9 µM; in [9], 38.1 µM; in assay [10] it was greater than 21.7 µM.

Consider `COC(=O)c1nc(-c2ccccc2)oc1S(=O)(=O)n1nc(C)cc1N`, for which the GI50 in assay [1] is 2.11 µM; in assay [2], 5.66 µM; in assay [3] it was 29.7 µM; in assay [4], 18.9 µM; in [5], 0.933 µM; in [6] it was 27.9 µM. In addition, the GI50 in assay [7] was 3.08 µM; in assay [8], 18.6 µM; in [9], 18.7 µM; in assay [10], 6.95 µM. For the same molecule, the TGI in assay [1] is 3.92 µM; in [2], 20 µM; in assay [3] it was greater than 100 µM; in assay [4], 41.3 µM; in assay [5] it was 3.94 µM; in assay [6], 84.2 µM. The TGI is 11.4 µM in [7], 39.7 µM in assay [8], 70.2 µM in assay [9] and 27.5 µM in assay [10].

`CC(C)(C)c1ccc(C(=O)Nc2sc3c(c2C(N)=O)CCC(=O)C3)cc1`: the GI50 was 0.617 µM in assay [1]; 0.413 µM in [2]; 1.21 µM in [3]; 1.11 µM in assay [4]; 0.363 µM in assay [5]; 2.38 µM in [6]. The GI50 in assay [7] was 0.705 µM; in assay [8] it was 1.72 µM; in assay [9], 2.83 µM; in assay [10], 0.402 µM. For the same molecule, the TGI in [1] amounted to 1.63 µM; in assay [2], 1.57 µM; in [3], 2.73 µM; in assay [4], 3.61 µM; in assay [5], 10.1 µM; in [6] it was 6.62 µM. Also, the TGI in assay [7] amounted to 3.45 µM; in [8], 4.19 µM; in assay [9] it was 9.04 µM; in assay [10], 2.96 µM.

With `Cc1ccc(NC(=O)c2ccccc2C(=O)O)cc1C`, the TGI in [1], in assay [2], in assay [3], in [4], in [5] and in [6] was greater than 100 µM throughout. In addition, the TGI in assay [7], in [8], in [9] and in assay [10] was greater than 100 µM in each case.

With `Cc1cc(N(CCC#N)CCC#N)ccc1/C=C1N=C(/C=C\c2ccccc2)N(c2ccc(Cl)cc2)C\1=O`, the TGI in [1] was 5.06 µM; in assay [2], greater than 48.2 µM; in assay [3] it was greater than 100 µM; in assay [4], greater than 100 µM; in assay [5] it was greater than 100 µM; in assay [6], greater than 63.5 µM. Further, the TGI in assay [7], in [8], in [9] and in assay [10] was greater than 100 µM each time.

As for `N#CN1CC[C@H](C(=O)Nc2ncc(-c3ccncc3)s2)C1`, the GI50 is less than 0.0141 µM in assay [1]; 0.0379 µM in assay [2]; 0.226 µM in assay [3]; 0.127 µM in [4]; less than 0.01 µM in assay [5]; 0.0689 µM in assay [6]. Besides, the GI50 in assay [7] is less than 0.01 µM; in assay [8], 0.605 µM; in assay [9], 0.121 µM; in [10], less than 0.0109 µM. Moreover, the TGI in assay [1] was 0.045 µM; in assay [2], 2.1 µM; in [3] it was greater than 38.9 µM; in assay [4], 6.96 µM; in assay [5], 4.18 µM; in [6], 3.92 µM. Moreover, the TGI in [7] was 3.8 µM; in [8], 6.91 µM; in assay [9], 0.596 µM; in assay [10] it was greater than 70.2 µM.

With `CCN1C(=O)N(CC)C2C1NN=c1s/c(=C\c3ccccc3Br)c(=O)n12` (stereo unspecified), the GI50 was 0.03 µM in assay [1]; 0.0318 µM in assay [2]; 0.0286 µM in assay [3]; 0.0612 µM in assay [4]; 0.023 µM in [5]; 0.0485 µM in assay [6]. The GI50 in [7] was 0.0399 µM; in assay [8], 9.29 µM; in [9] it was less than 0.0156 µM; in assay [10], 0.0328 µM. Besides, the concentration for total growth inhibition (TGI) in [1] is 0.118 µM; in assay [2], 13.8 µM; in assay [3], 15.1 µM; in assay [4], greater than 59.5 µM; in assay [5] it was greater than 100 µM; in [6], 20.4 µM. For the same molecule, the total growth inhibition concentration (TGI) in [7] was found to be 29.5 µM; in assay [8], 33.3 µM; in assay [9], 0.0598 µM; in assay [10], 16.5 µM.

Consider `CCCCn1c(=O)c2c(nc3n2CCCN3CCc2ccc(OCC(=O)NCCN(CC)CC)cc2)n(CCCC)c1=O`, for which the GI50 in assay [1] is 1.78 µM; in assay [2], 0.961 µM; in assay [3] it was 0.877 µM; in assay [4] it was 5.16 µM; in [5] it was 1.14 µM; in assay [6], 5.75 µM. In addition, the GI50 in assay [7] is 2.14 µM; in assay [8], 1.02 µM; in [9], 0.54 µM; in assay [10], 1.95 µM. The TGI in assay [1] was 7.38 µM; in assay [2], 1.93 µM; in assay [3], 1.95 µM; in assay [4], 12.8 µM; in [5], 3.02 µM; in assay [6], 14.7 µM. In addition, the TGI in [7] was 10.5 µM; in [8], 2.16 µM; in [9], 2.51 µM; in assay [10], 8.97 µM.
